Data from US8664399B2, “Substituted heterocyclic compounds as ion channel modulators” (Gilead Sciences, Inc., priority 2008, dated 2014).

target: T1, human cardiac sodium channel, hNav1.5 (Homo sapiens, UniProt Q14524); assay: Late INa screening assay (automated whole cell patch clamp, PatchXpress; late current generated with 10 μM Tefluthrin); format: cell-based; settings: 1 μM test compound; HEK293 cells expressing hNav1.5
T1 construct: host or cells: HEK293
Experimental: The late sodium current (Late INa) and peak sodium current (Peak INa) assays were performed on an automated electrophysiology platform, PatchXpress 7000A (MDS Analytical Technologies, Sunnyvale, Calif.), which uses the whole cell patch clamp technique to measure currents through the cell membrane of up to 16 cells at a time. The assay uses an HEK293 (human embryonic kidney) cell line heterologously expressing the wild-type human cardiac sodium channel, hNav1.5, purchased from Millipore (Billerica, Mass.). No beta subunits were coexpressed with the Na channel alpha subunit. Cells were maintained with standard tissue culture procedures and stable channel expression was maintained with 400 μg/ml Geneticin in the culture medium. Cells isolated for use on PatchXpress were incubated for 5 minutes in Versene 1X and then for 2 minutes in 0.0125% Trypsin-EDTA (both at 37° C.) to ensure that 80-90% of the cells are single and not part of a cell cluster. Experiments were carried out at 24-27° C.
For both the Late INa and Peak INa assays, series resistance compensation was set to 50% and whole-cell compensation is performed automatically. Currents were low-pass filtered at 10 kHz and digitized at 31.25 kHz. Currents through open sodium channels were automatically recorded and stored in the DataXpress2 database (MDS Analytical Technologies, Sunnyvale, Calif.). Analysis is performed using DataXpress2 analysis software and data are compiled in Excel.
Compound stocks were routinely made in glass vials to 10 mM in dimethyl sulfoxide (DMSO). In some cases, when compounds were not soluble in DMSO, they were made in 100% ethanol. Stocks were sonicated as necessary. The extracellular solution for screening Late INa was composed of: 140 mM NaCl, 4 mM KCl, 1.8 mM CaCl2, 0.75 mM MgCl2, and 5 mM HEPES with pH adjusted to 7.4 using NaOH. The extracellular solution for screening Peak INa was composed of: 20 mM NaCl, 120 mM N-methyl-D glucamine, 4 mM KCl, 1.8 mM CaCl2, 0.75 mM MgCl2, and 5 mM HEPES with pH adjusted to 7.4 using HCl. The intracellular solution used to perfuse the inside of the cells for both the Late INa and Peak INa assays contained: 120 mM CsF, 20 mM CsCl, 5 mM EGTA, 5 mM HEPES and pH adjusted to 7.4 with CsOH. […] The 0Na extracellular solution used at the end of each experiment for the Late INa and Peak INa assays to measure baseline current contained: 140 mM N-methyl-D-glucamine; 4 mM KCl; 1.8 mM CaCl2; 0.75 mM MgCl2; 5 mM HEPES and pH was adjusted to 7.4 with HCl.
For the Late INa assay, sodium channels were activated every 10 seconds (0.1 Hz) by depolarizing the cell membrane to −20 mV for 250 milliseconds (ms) from a holding potential of −120 mV. In response to a −20 mV voltage step, typical Nav1.5 sodium currents activate rapidly to a peak negative current and then inactivate nearly completely within 3-4 ms.
All compounds were tested to determine their activity in blocking the late sodium current. Late INa current was generated by adding 10 μM Tefluthrin (pyrethroid) to the extracellular solution while recording Na currents.

T1 sequence (Q14524 whole entry): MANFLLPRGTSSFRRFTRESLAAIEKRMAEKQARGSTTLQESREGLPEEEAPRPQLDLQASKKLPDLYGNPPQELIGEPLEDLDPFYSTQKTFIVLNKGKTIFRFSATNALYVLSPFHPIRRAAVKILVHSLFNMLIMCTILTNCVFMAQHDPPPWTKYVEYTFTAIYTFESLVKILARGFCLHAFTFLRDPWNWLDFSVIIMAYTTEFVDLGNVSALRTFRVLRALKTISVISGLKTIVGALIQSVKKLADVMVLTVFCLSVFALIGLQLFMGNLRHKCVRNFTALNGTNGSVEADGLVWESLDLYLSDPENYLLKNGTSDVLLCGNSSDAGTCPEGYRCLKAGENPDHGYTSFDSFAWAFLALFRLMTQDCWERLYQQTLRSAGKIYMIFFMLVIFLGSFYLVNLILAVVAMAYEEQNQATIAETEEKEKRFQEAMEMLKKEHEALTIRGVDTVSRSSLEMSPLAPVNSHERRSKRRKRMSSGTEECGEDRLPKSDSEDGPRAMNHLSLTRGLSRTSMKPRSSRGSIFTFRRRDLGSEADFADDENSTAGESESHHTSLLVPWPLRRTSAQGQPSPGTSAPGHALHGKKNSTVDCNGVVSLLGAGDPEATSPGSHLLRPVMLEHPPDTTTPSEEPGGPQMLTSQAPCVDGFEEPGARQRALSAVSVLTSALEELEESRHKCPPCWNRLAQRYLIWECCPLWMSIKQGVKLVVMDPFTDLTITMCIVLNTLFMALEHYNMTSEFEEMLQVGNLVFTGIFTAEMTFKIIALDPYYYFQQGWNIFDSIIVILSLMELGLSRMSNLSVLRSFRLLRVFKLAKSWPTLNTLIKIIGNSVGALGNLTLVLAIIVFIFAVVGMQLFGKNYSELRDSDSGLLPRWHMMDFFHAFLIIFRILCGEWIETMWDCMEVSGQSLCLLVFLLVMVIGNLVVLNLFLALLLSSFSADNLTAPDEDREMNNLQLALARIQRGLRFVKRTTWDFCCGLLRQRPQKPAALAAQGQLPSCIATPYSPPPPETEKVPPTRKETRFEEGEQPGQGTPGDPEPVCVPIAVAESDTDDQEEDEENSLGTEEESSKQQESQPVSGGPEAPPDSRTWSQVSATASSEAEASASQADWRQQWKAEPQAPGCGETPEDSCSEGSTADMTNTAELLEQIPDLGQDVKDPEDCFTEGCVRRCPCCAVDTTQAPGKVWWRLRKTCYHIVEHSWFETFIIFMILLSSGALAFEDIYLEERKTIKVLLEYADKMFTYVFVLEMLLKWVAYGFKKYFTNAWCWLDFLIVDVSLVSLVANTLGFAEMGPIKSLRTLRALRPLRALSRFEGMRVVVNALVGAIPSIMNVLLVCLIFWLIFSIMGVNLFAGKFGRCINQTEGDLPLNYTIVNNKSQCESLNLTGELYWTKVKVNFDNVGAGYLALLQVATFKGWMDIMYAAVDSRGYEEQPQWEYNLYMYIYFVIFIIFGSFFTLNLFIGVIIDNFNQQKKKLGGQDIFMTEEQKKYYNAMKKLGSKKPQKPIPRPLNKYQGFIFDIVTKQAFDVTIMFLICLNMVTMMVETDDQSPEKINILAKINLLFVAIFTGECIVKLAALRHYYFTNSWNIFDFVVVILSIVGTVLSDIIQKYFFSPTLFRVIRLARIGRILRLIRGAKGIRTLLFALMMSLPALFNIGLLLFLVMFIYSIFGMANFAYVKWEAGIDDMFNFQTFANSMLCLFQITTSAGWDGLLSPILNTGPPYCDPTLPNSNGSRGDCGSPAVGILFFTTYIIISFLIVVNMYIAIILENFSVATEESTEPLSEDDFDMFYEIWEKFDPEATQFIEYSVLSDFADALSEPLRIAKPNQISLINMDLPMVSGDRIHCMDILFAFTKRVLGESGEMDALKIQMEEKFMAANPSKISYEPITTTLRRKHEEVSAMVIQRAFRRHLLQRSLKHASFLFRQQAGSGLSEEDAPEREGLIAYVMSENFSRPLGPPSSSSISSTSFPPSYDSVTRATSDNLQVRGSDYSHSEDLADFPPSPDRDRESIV

Compound	Late Ina % blk (1 μM test cmpd)
Cc1nc2ccccc2c(C)c1C(=O)OCc1ccccc1Br [PT-028, 2-bromobenzyl 2,4-dimethylquinoline-3-carboxylate]	39.2%

same assay, conditions: 10 μM test compound; HEK293 cells expressing hNav1.5; read-out: Late Ina % blk (10 μM test cmpd)

Compound	inhibition at 10 µM
Cc1nc2ccccc2c(-c2ccccc2)c1C(=O)OCc1ccccc1 [PT-001, benzyl 2-methyl-4-phenylquinoline-3-carboxylate]	78.3%
Cc1nc2ccc(Cl)cc2c(-c2ccccc2)c1C(=O)OC(C)(C)C [PT-002, Tert-butyl 6-chloro-2-methyl-4-phenylquinoline-3-carboxylate]	61.1%
Cc1nc2ccc(Cl)cc2c(-c2ccccc2)c1C(=O)NCc1ccc(F)cc1 [PT-003, 6-chloro-N-(4-fluorobenzyl)-2-methyl-4-phenylquinoline-3-carboxamide]	26.3%
N#Cc1c(N)nc2ccc(Cl)cc2c1-c1ccccc1 [PT-004, 2-amino-6-chloro-4-phenylquinoline-3-carbonitrile]	15.2%
CCOC(=O)c1c(CCl)nc2ccc(Cl)cc2c1-c1ccccc1 [PT-006, ethyl 6-chloro-2-(chloromethyl)-4-phenylquinoline-3-carboxylate]	48.8%
CCOC(=O)c1c(CN2C(=O)c3ccccc3C2=O)nc2ccc(Cl)cc2c1-c1ccccc1 [PT-007, ethyl 6-chloro-2-[(1,3-dioxo-1,3-dihydro-2H-isoindol-2-yl)methyl]-4-phenylquinoline-3-carboxylate]	24%
CCOC(=O)c1c(Cn2ccnc2)nc2ccc(Cl)cc2c1-c1ccccc1 [PT-008, ethyl 6-chloro-2-(1H-imidazol-1-ylmethyl)-4-phenylquinoline-3-carboxylate]	41.1%
CCOC(=O)c1c(CN2C(=O)CCC2=O)nc2ccc(Cl)cc2c1-c1ccccc1 [PT-009, ethyl 6-chloro-2-[(2,5-dioxopyrrolidin-1-yl)methyl]-4-phenylquinoline-3-carboxylate]	53.3%
CCOC(=O)c1c(COc2ccc(Cl)cc2OC)nc2ccc(Cl)cc2c1-c1ccccc1 [PT-011, ethyl 6-chloro-2-[(4-chloro-2-methoxyphenoxy)methyl]-4-phenylquinoline-3-carboxylate]	18.1%
Cc1nc2ccc(Cl)cc2c(-c2ccccc2)c1C(=O)N1CCCCC1 [PT-013, (6-chloro-2-methyl-4-phenylquinolin-3-yl)(piperidin-1-yl)methanone]	30.2%
Cc1nc2ccc(Cl)cc2c(-c2ccccc2)c1C(=O)O[C@@H](C)c1ccccc1 [PT-014, (1S)-1-phenylethyl 6-chloro-2-methyl-4-phenylquinoline-3-carboxylate]	36.1%
Cc1nc2ccc(Cl)cc2c(-c2ccccc2)c1C(=O)O[C@H](C)c1ccccc1 [PT-015, (1R)-1-phenylethyl 6-chloro-2-methyl-4-phenylquinoline-3-carboxylate]	37%
Cc1nc2ccc(Cl)cc2c(-c2ccccc2)c1C(=O)OCc1ccc(Cn2cccn2)cc1 [PT-018, 4-(1H-pyrazol-1-ylmethyl)benzyl 6-chloro-2-methyl-4-phenylquinoline-3-carboxylate]	54.5%
Cc1nc2ccc(Cl)cc2c(-c2ccccc2Cl)c1C(=O)OC(C)(C)C [PT-020, Tert-butyl 6-chloro-4-(2-chlorophenyl)-2-methylquinoline-3-carboxylate]	32.9%
CCOC(=O)c1c(C)nc2ccc(Cl)cc2c1-c1ccccc1Cl [PT-021, ethyl 6-chloro-4-(2-chlorophenyl)-2-methylquinoline-3-carboxylate]	70.2%
Cc1nc2ccc(Cl)cc2c(-c2ccccc2F)c1C(=O)OC(C)(C)C [PT-022, Tert-butyl 6-chloro-4-(2-fluorophenyl)-2-methylquinoline-3-carboxylate]	46.9%
Cc1nc2ccc(Cl)cc2c(-c2ccccc2)c1C(C)O (stereo not shown) [PT-023, 1-(6-chloro-2-methyl-4-phenylquinolin-3-yl)ethanol]	29.8%
CCOC(=O)c1c(CN(C)C)nc2ccc(Cl)cc2c1-c1ccccc1 [PT-024, ethyl 6-chloro-2-[(dimethylamino)methyl]-4-phenylquinoline-3-carboxylate]	57.8%
COC(=O)c1c(C)nc2ccccc2c1C [PT-025, methyl 2,4-dimethylquinoline-3-carboxylate]	26.6%
CCOCc1nc2ccccc2c(C)c1C(=O)OCC [PT-026, ethyl 2-(ethoxymethyl)-4-methylquinoline-3-carboxylate]	23.4%
Cc1nc2ccc(Cl)cc2c(-c2ccccc2Cl)c1C(=O)OCc1ccccc1Br [PT-027, 2-bromobenzyl 6-chloro-4-(2-chlorophenyl)-2-methylquinoline-3-carboxylate]	45.3%
Cc1nc2ccccc2c(C)c1C(=O)OCc1ccccc1Br [PT-028, 2-bromobenzyl 2,4-dimethylquinoline-3-carboxylate]	82.4%
CCOC(=O)c1c(C)nc2ccc(Cl)cc2c1-c1ccccc1 [PT-029, ethyl 6-chloro-2-methyl-4-phenylquinoline-3-carboxylate]	70.2%
CCOC(=O)c1c(C)nc2ccc(Cl)cc2c1-c1ccccc1F [PT-030, ethyl 6-chloro-4-(2-fluorophenyl)-2-methylquinoline-3-carboxylate]	55.4%
Cc1nc2ccccc2c(C)c1-c1nnc(C(C)(C)c2ccc(Cl)cc2)o1 [PT-031, 3-{5-[2-(4-chlorophenyl)propan-2-yl]-1,3,4-oxadiazol-2-yl}-2,4-dimethylquinoline]	64.4%
Cc1nc2ccc(Cl)cc2c(C)c1C(=O)OCc1ccccc1Br [PT-032, 2-bromobenzyl 6-chloro-2,4-dimethylquinoline-3-carboxylate]	82.4%

target: T2, hERG potassium channel (Homo sapiens, UniProt Q12809); assay: hERG screening assay (PatchXpress automated patch clamp, CHO cell line); format: cell-based; settings: 1 μm test compound; CHO cells
T2 construct: expressed in transfected cells; host or cells: CHO (Chinese Hamster Ovary)
T2 sequence (Q12809 whole entry): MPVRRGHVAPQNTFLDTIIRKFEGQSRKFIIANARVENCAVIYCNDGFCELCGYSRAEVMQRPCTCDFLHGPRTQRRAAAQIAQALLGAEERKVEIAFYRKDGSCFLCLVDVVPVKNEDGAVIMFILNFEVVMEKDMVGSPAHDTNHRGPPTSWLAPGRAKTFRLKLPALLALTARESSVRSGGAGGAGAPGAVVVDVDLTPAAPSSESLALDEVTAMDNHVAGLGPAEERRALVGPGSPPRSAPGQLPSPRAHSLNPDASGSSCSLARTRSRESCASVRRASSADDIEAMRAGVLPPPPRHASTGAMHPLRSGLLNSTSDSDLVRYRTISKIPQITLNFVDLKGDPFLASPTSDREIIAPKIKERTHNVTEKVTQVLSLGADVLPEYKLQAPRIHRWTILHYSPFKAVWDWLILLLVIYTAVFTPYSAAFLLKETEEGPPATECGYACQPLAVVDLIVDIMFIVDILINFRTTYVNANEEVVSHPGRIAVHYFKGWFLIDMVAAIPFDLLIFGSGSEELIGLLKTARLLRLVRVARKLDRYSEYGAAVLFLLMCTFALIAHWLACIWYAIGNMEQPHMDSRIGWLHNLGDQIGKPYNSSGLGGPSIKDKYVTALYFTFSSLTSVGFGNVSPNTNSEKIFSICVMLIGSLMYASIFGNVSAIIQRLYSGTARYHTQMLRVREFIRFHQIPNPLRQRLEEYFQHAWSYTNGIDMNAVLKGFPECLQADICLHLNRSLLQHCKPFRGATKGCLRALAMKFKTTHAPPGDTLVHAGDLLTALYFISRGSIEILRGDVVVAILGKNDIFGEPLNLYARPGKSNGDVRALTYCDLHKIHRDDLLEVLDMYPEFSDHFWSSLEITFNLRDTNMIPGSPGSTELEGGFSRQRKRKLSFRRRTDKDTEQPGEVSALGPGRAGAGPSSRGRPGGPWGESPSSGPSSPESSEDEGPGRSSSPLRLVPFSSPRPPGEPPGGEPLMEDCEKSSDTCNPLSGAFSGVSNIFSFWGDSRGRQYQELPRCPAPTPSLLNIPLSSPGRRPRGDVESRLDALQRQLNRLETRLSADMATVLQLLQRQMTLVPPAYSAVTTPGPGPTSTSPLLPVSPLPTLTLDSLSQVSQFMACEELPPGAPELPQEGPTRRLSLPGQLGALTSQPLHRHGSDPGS
Experimental: Compounds were screened to test their activity in blocking the hERG potassium channel. The hERG channel is heterologously expressed in a CHO (Chinese Hamster Ovary) cell line. Cells were maintained with standard tissue culture procedures and stable channel expression is maintained with 500 μg/ml G418 in the culture medium. Cells were harvested for testing on the PatchXpress automated patch clamp with Accumax (Innovative Cell Technologies, San Diego, Calif.) to isolate single cells.
The following solutions were used for electrophysiological recordings. The external solution contains: 2 mM CaCl2; 2 mM MgCl2; 4 mM KCl; 150 mM NaCl; 10 mM Glucose; 10 mM HEPES (pH 7.4 with 1M NaOH, osmolarity). The internal solution contained: 140 mM KCl, 10 mM MgCl2, 6 mM EGTA, 5 mM HEPES, 5 mM ATP (pH adjusted to 7.25 with KOH).
hERG channels are activated when the voltage is stepped to +20 mV from the −80 mV holding potential. During a 5 second step at +20 mV, the channels activate and then largely inactivate, so the currents are relatively small. Upon returning to −50 mV from +20 mV, hERG currents transiently become much larger as inactivation is rapidly removed and then the channel closes. The first step to −50 mV for 300 ms is used as a baseline for measuring the peak amplitude during the step to −50 mV after channel activation. The peak current at −50 mV was measured both under control conditions and after addition of compound.
All compounds were prepared as 10 mM DMSO stocks in glass vials. Stock solutions were mixed by vigorous vortexing and sonication for about 2 minutes at room temperature. For testing, compounds were diluted in glass vials using an intermediate dilution step in pure DMSO and then further diluted to working concentrations in external solution. Dilutions were prepared no longer than 20 minutes before use.
After achieving the whole-cell configuration, cells were monitored for 90 seconds to assess stability and washed with external solution for 66 seconds. The voltage protocol described above was then applied to the cells every 12 seconds and throughout the whole procedure. Only cells with stable recording parameters and meeting specified health criteria were allowed to enter the compound addition procedure.
External solution containing 0.1% DMSO (vehicle) was applied to the cells first to establish the control peak current amplitude. After allowing the current to stabilize for 3 to 5 minutes, 1 μM and then 10 μM test compounds was applied. Each compound concentration was added 4 times and cells were kept in test solution until the effect of the compound reaches steady state or for a maximum of 12 minutes. After addition of test compound, a positive control (1 μM Cisapride) was added and must block >95% of the current for the experiment to be considered valid. Washout in the external solution compartment was performed until the recovery of the current reaches steady state. Data were analyzed using DataXpress, Clampfit (Molecular Devices, Inc., Sunnyvale) and Origin 7 (Originlab Corp.)

Compound	hERG Patch Clamp hERG % blk (1 μm test cmpd)
CCOC(=O)c1c(Cn2ccnc2)nc2ccc(Cl)cc2c1-c1ccccc1 [PT-008, ethyl 6-chloro-2-(1H-imidazol-1-ylmethyl)-4-phenylquinoline-3-carboxylate]	43.0%
CCOC(=O)c1c(CN2C(=O)CCC2=O)nc2ccc(Cl)cc2c1-c1ccccc1 [PT-009, ethyl 6-chloro-2-[(2,5-dioxopyrrolidin-1-yl)methyl]-4-phenylquinoline-3-carboxylate]	24.0%

same assay, conditions: 10 μm test compound; CHO cells

Compound	hERG Patch Clamp hERG % blk (10 μm test cmpd)
CCOC(=O)c1c(Cn2ccnc2)nc2ccc(Cl)cc2c1-c1ccccc1 [PT-008, ethyl 6-chloro-2-(1H-imidazol-1-ylmethyl)-4-phenylquinoline-3-carboxylate]	94.5%
CCOC(=O)c1c(CN2C(=O)CCC2=O)nc2ccc(Cl)cc2c1-c1ccccc1 [PT-009, ethyl 6-chloro-2-[(2,5-dioxopyrrolidin-1-yl)methyl]-4-phenylquinoline-3-carboxylate]	65.5%
